According to patent US10183949B2, “Pyrimidinone derivative having autotaxin-inhibitory activity” (The University of Tokyo, priority 2014, dated 2019):
pIC50: −log10 of the molar value.

Target: T1, Human autotaxin enzyme (Homo sapiens, UniProt Q13822)
T1 construct: purchased R&D System
Assay: Evaluation of autotaxin inhibitor, 18:0 Lyso PC / choline assay (Test Example 2)
Format: biochemical
Conditions: human autotaxin enzyme, 18:0 Lyso PC substrate, choline assay, room temperature 2 hours; read-out: Inhibitor activity (IC50)
Procedure, shortened: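 Human autotaxin in 100 mM Tris-HCl pH 7.5, 150 mM NaCl, 5 mM MgCl2, 0.05% Triton X-100 reacted with 18:0 Lyso PC (200 μM stock) and test compound 2 h at room temperature. Released choline quantified via choline oxidase/peroxidase resorufin fluorescence (ex 531/em 598 nm, 20 min); inhibition vs no-compound and no-enzyme controls, concentration-response curve.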

Structure (SMILES)	pIC50
Cc1nc(-c2ccc(C#N)cc2NC(=O)C2CC2)cc(=O)n1Cc1cccc(C(=O)O)c1 [Compound I-0271]	> 8.00
Cc1nc(-c2ccc(Cl)cc2NC(=O)C(C)(C)C)cc(=O)n1CC(=O)NC(C)(C)C [Compound I-0273]	7.00 to 8.00
Cc1nc(-c2ccc(Cl)cc2NC(=O)C2CC2)cc(=O)n1Cc1cccc(C(=O)O)c1 [Compound I-0279]	> 8.00
O=C(O)c1ccc(Cn2c(CCCC(F)(F)F)nc(-c3ccc(Cl)cc3)cc2=O)o1 [Compound I-0280]	7.00 to 8.00
Cc1nc(-c2ccc(F)cc2NC(=O)C2CC2)cc(=O)n1CC(=O)NCC1(CO)COC1 [Compound I-0281]	6.00 to 7.00
Cc1nc(-c2ccc(C#N)cc2NC(=O)C(C)(C)C)cc(=O)n1Cc1cccc(C(=O)O)c1 [Compound I-0282]	> 8.00
CC(C)(C)OC(=O)NCn1c(CCCC(F)(F)F)nc(-c2ccc(Cl)cc2)cc1=O [Compound I-0283]	6.00 to 7.00
COC(=O)Nc1cc(Cl)ccc1-c1cc(=O)n(CC(=O)NCC2(CO)COC2)c(C)n1 [Compound I-0286]	7.00 to 8.00
Cc1nc(-c2ccc(C#N)cc2NC(=O)C2CC2)cc(=O)n1CC(=O)NCC1(CO)COC1 [Compound I-0287]	7.00 to 8.00
O=C(O)c1cccc(Cn2c(CCCC(F)(F)F)nc(-c3ccc(Cl)cc3)cc2=O)n1 [Compound I-0289]	6.00 to 7.00
Cc1nc(-c2ccc(Cl)cc2NC(=O)C(C)(C)C)cc(=O)n1Cc1cccc(C(=O)O)c1 [Compound I-0290]	> 8.00
O=C(O)c1ccc(Cn2c(CCCC(F)(F)F)nc(-c3ccc(Cl)cc3)cc2=O)s1 [Compound I-0293]	7.00 to 8.00
O=C(O)c1nc(Cn2c(CCCC(F)(F)F)nc(-c3ccc(Cl)cc3)cc2=O)cs1 [Compound I-0294]	7.00 to 8.00
Cc1nc(-c2ccc(F)cc2NC(=O)C(C)(C)C)cc(=O)n1CC(=O)NCC1(CO)COC1 [Compound I-0298]	6.00 to 7.00
Cc1nc(-c2ccc(Cl)cc2NC(=O)C(C)(C)C)cc(=O)n1CC(=O)N1CCC(O)CC1 [Compound I-0301]	7.00 to 8.00
COC(=O)Nc1cc(Cl)ccc1-c1cc(=O)n(CC(=O)N(C)C2(CO)CCCC2)c(C)n1 [Compound I-0302]	7.00 to 8.00
COC(=O)c1cncc(Cn2c(CCCC(F)(F)F)nc(-c3ccc(Cl)cc3)cc2=O)c1 [Compound I-0307]	6.00 to 7.00
Cc1nc(-c2ccc(C#N)cc2NC(=O)C(C)(C)C)cc(=O)n1CC(=O)NCC1(CO)COC1 [Compound I-0308]	7.00 to 8.00
Cc1nc(-c2ccc(Cl)cc2NC(=O)C(C)(C)C)cc(=O)n1CC(=O)Nc1cccnc1O [Compound I-0310]	7.00 to 8.00
CCOC(=O)c1noc(Cn2c(CCCC(F)(F)F)nc(-c3ccc(Cl)cc3)cc2=O)n1 [Compound I-0311]	6.00 to 7.00

Structure (SMILES)	pIC50
COC(=O)c1cc(Cn2c(CCCC(F)(F)F)nc(-c3ccc(Cl)cc3)cc2=O)cs1 [Compound I-0313]	6.00 to 7.00
N#CC1CN(C(=O)Cn2c(CCCC(F)(F)F)nc(-c3ccc(C(F)(F)F)cc3)cc2=O)C1 [Compound I-0314]	7.00 to 8.00
CSc1nc(-c2ccc(Cl)cc2NC(=O)C(C)(C)C)cc(=O)n1CC(=O)NC1(C#N)CC1 [Compound I-0316]	7.00 to 8.00
Cc1nc(-c2ccc(Cl)cc2NC(=O)C(C)(C)C)cc(=O)n1CC(=O)NCC1(CO)COC1 [Compound I-0317]	7.00 to 8.00
O=C(Cn1c(CCCC(F)(F)F)nc(-c2ccc(C(F)(F)F)cc2)cc1=O)NCC1CCO1 (centres unmarked) [Compound I-0318]	7.00 to 8.00
O=C(Cn1c(CCCC(F)(F)F)nc(-c2ccc(C(F)(F)F)cc2)cc1=O)N1CCC(O)C1 (centres unmarked) [Compound I-0319]	6.00 to 7.00
CC1(O)CN(C(=O)Cn2c(CCCC(F)(F)F)nc(-c3ccc(C(F)(F)F)cc3)cc2=O)C1 [Compound I-0320]	6.00 to 7.00
CC(C)(O)CNC(=O)Cn1c(CCCC(F)(F)F)nc(-c2ccc(C(F)(F)F)cc2)cc1=O [Compound I-0321]	7.00 to 8.00
O=C(O)c1cccc(Cn2c(CCCC(F)(F)F)nc(-c3ccc(Cl)cc3CO)cc2=O)c1 [Compound I-0322]	7.00 to 8.00
O=C(Cn1c(CCCC(F)(F)F)nc(-c2ccc(C(F)(F)F)cc2)cc1=O)NCC(O)CO (centres unmarked) [Compound I-0323]	7.00 to 8.00
COC(=O)Nc1cc(Cl)ccc1-c1cc(=O)n(CC(=O)NC2(C)CCS(=O)(=O)C2)c(C)n1 (centres unmarked) [Compound I-0324]	7.00 to 8.00
CS(C)(=O)=NC(=O)Cn1c(CCCC(F)(F)F)nc(-c2ccc(C(F)(F)F)cc2)cc1=O [Compound I-0325]	7.00 to 8.00
CCOC(=O)c1nc(Cn2c(CCCC(F)(F)F)nc(-c3ccc(Cl)cc3)cc2=O)cs1 [Compound I-0326]	7.00 to 8.00
N#CC1CCN(C(=O)Cn2c(CCCC(F)(F)F)nc(-c3ccc(C(F)(F)F)cc3)cc2=O)C1 (centres unmarked) [Compound I-0327]	7.00 to 8.00
O=C1CC(CNC(=O)Cn2c(CCCC(F)(F)F)nc(-c3ccc(C(F)(F)F)cc3)cc2=O)CN1 (centres unmarked) [Compound I-0336]	7.00 to 8.00
O=C(Cn1c(CCCC(F)(F)F)nc(-c2ccc(C(F)(F)F)cc2)cc1=O)NCC1(CO)COC1 [Compound I-0337]	7.00 to 8.00
O=C(Cn1c(CCCC(F)(F)F)nc(-c2ccc(C(F)(F)F)cc2)cc1=O)N1CCOC(CO)C1 (centres unmarked) [Compound I-0338]	7.00 to 8.00
O=C(Cn1c(CCCC(F)(F)F)nc(C2=CCC(C(F)(F)F)CC2)cc1=O)NCC1(CO)COC1 (centres unmarked) [Compound I-0339]	7.00 to 8.00
O=C(Cn1c(CCCC(F)(F)F)nc(-c2ccc(C(F)(F)F)cc2)cc1=O)NCc1ccc(O)nc1 [Compound I-0340]	6.00 to 7.00

Continued, values first:

pIC50	Structure (SMILES)
7.00 to 8.00	Cc1nc(-c2ccc(F)cc2NC(=O)C2CC2)cc(=O)n1Cc1cccc(C(=O)O)c1 [Compound I-0270]
7.00 to 8.00	COC(=O)Nc1cc(Cl)ccc1-c1cc(=O)n(CC(=O)N2CCCC2(C)C)c(C)n1 [Compound I-0272]
7.00 to 8.00	COC(=O)Nc1cc(Cl)ccc1-c1cc(=O)n(CC(=O)N(C)C2(C)COC2)c(C)n1 [Compound I-0274]
7.00 to 8.00	COC(=O)Nc1cc(Cl)ccc1-c1cc(=O)n(CC(=O)NCC2(CO)CC2)c(C)n1 [Compound I-0275]
7.00 to 8.00	COC(=O)Nc1cc(Cl)ccc1-c1cc(=O)n(CC(=O)N(C(C)C)C(C)C)c(C)n1 [Compound I-0276]
7.00 to 8.00	COC(=O)Nc1cc(Cl)ccc1-c1cc(=O)n(CC(=O)N(C)C(C)(C)CO)c(C)n1 [Compound I-0277]
7.00 to 8.00	Cc1nc(-c2ccc(F)cc2NC(=O)C(C)(C)C)cc(=O)n1Cc1cccc(C(=O)O)c1 [Compound I-0278]
7.00 to 8.00	CC(C)(C)OC(=O)Cn1c(CCCC(F)(F)F)nc(-c2ccc(Cl)cc2F)cc1=O [Compound I-0284]
7.00 to 8.00	COC(=O)Nc1cc(Cl)ccc1-c1cc(=O)n(CC(=O)N2CCOCC2(C)C)c(C)n1 [Compound I-0285]
7.00 to 8.00	O=C(O)c1cncc(Cn2c(CCCC(F)(F)F)nc(-c3ccc(Cl)cc3)cc2=O)c1 [Compound I-0288]
7.00 to 8.00	COC(=O)c1ccc(Cn2c(CCCC(F)(F)F)nc(-c3ccc(Cl)cc3)cc2=O)o1 [Compound I-0291]
7.00 to 8.00	O=C(O)c1cc(Cn2c(CCCC(F)(F)F)nc(-c3ccc(Cl)cc3)cc2=O)cs1 [Compound I-0292]
7.00 to 8.00	CSc1nc(-c2ccc(Cl)cc2NC(=O)C2CC2)cc(=O)n1CC(=O)NC1(C#N)CC1 [Compound I-0295]
6.00 to 7.00	CC(C)(C)OC(=O)Cn1c(CCCC(F)(F)F)nc(-c2ccc(Cl)cc2C=O)cc1=O [Compound I-0296]
7.00 to 8.00	CN(CC#N)C(=O)Cn1c(CCCC(F)(F)F)nc(-c2ccc(C(F)(F)F)cc2)cc1=O [Compound I-0297]
> 8.00	CC(C)(C)OC(=O)Cn1c(CCCC(F)(F)F)nc(-c2ccc(Cl)cc2CO)cc1=O [Compound I-0299]

pIC50	Structure (SMILES)
7.00 to 8.00	Cc1nc(-c2ccc(Cl)cc2NC(=O)C2CC2)cc(=O)n1CC(=O)NCC1(CO)COC1 [Compound I-0300]
7.00 to 8.00	CC(O)CNC(=O)Cn1c(CCCC(F)(F)F)nc(-c2ccc(C(F)(F)F)cc2)cc1=O (centres unmarked) [Compound I-0303]
7.00 to 8.00	CC(C)(C)OC(=O)Cn1c(CCCC(F)(F)F)nc(-c2ccc(C(F)(F)F)nc2)cc1=O [Compound I-0304]
7.00 to 8.00	CN(CCO)C(=O)Cn1c(CCCC(F)(F)F)nc(-c2ccc(C(F)(F)F)cc2)cc1=O [Compound I-0305]
7.00 to 8.00	COC(=O)c1cccc(Cn2c(CCCC(F)(F)F)nc(-c3ccc(Cl)cc3)cc2=O)n1 [Compound I-0306]
7.00 to 8.00	COC(=O)Nc1cc(Cl)ccc1-c1cc(=O)n(CC(=O)NC2CCS(=O)(=O)C2)c(C)n1 (centres unmarked) [Compound I-0309]
6.00 to 7.00	COC(=O)c1ccc(Cn2c(CCCC(F)(F)F)nc(-c3ccc(Cl)cc3)cc2=O)s1 [Compound I-0312]
≤ 6.00	CC1(O)CN(C(=O)Cn2c(CCCC(F)(F)F)nc(-c3ccc(Cl)cc3CO)cc2=O)C1 [Compound I-0315]
7.00 to 8.00	O=C(Cn1c(CCCC(F)(F)F)nc(-c2ccc(Cl)cc2CO)cc1=O)NCC1(CO)CC1 [Compound I-0328]
7.00 to 8.00	Cc1nc(-c2ccc(Cl)cc2NC(=O)C(C)(C)C)cc(=O)n1CC(=O)N1CCC(C(N)=O)CC1 [Compound I-0329]
7.00 to 8.00	O=C(Cn1c(CCCC(F)(F)F)nc(-c2ccc(C(F)(F)F)cc2)cc1=O)NCc1c[nH]nn1 [Compound I-0330]
> 8.00	O=C(Cn1c(CCCC(F)(F)F)nc(-c2ccc(C(F)(F)F)cc2)cc1=O)NCc1nn[nH]n1 [Compound I-0331]
7.00 to 8.00	CN(C(=O)Cn1c(CCCC(F)(F)F)nc(-c2ccc(C(F)(F)F)cc2)cc1=O)C1(C)COC1 [Compound I-0332]
7.00 to 8.00	O=C(Cn1c(CCCC(F)(F)F)nc(-c2ccc(C(F)(F)F)cc2)cc1=O)NCCc1cn[nH]c1 [Compound I-0333]
7.00 to 8.00	O=C(Cn1c(CCCC(F)(F)F)nc(-c2ccc(Cl)cc2CO)cc1=O)NCC1(CO)COC1 [Compound I-0334]
7.00 to 8.00	O=C(Cn1c(CCCC(F)(F)F)nc(-c2ccc(C(F)(F)F)cc2)cc1=O)NCC1CCC(=O)N1 (centres unmarked) [Compound I-0335]
